# Source: patent US20200121716A1, “Method for Inhibiting Both Glycolysis and Glutamine Metabolism in Cells and Use Thereof” (priority 2017, published 2020)
# Where two headings read alike, the source gives them in different places.
# Key:
# anaerobia = assay: spontaneous anaerobic fermentation of flour paste sealed with rapeseed oil; type: cell-based; settings: about 7 months spontaneous fermentation, air blocked with rapeseed oil; amounts added as
# fly maggot eggs = assay: meat slice preservative experiment
# glutamine metabolism = assay: spontaneous fermentation of flour paste mixed with glutamine; type: cell-based; settings: about 25 °C, one hour, without reducing agent 8 to 9
# [1] = test system: L-glutamate dehydrogenation; assay: spontaneous fermentation of flour paste mixed with L-glutamate; type: cell-based; settings: for level of water absorbed on dry test paper: paper inserted 30 minutes, without reducing agent 5 mm
# [2] = cited from earlier work
# [3] = trials on patients with gastric ulcer or gastrointestinal inflammation; type: in vivo, human; settings: about 30 of about 80 tumor patients having gastrointestinal inflammation
# [4] = spraying on brown spots on the face; type: in vivo, human; settings: 5 ppm sodium selenite solution and randomly 3% aqueous sodium formate solution
# [5] = trials on patients with gout, urine pH; type: in vivo, human
# [6] = test system: anaerobic bacteria or facultative anaerobic bacteria; type: cell-based
# bacteria = assay: preservative effect on lettuce leaf, loofah juice and celery leaf in water
# fermenting microorganism = assay: flour fermentation experiment; type: cell-based; settings: second day of fermentation; without sodium selenite pH 4-5
# Description: Two portions of flour (50 g each) were used for fermentation experiments. Each portion was mixed with an equal amount (about 50 g) of water, and to one of the mixtures sodium selenite having about 200 μg selenium was added. […] The same phenomenon was observed over 20 days of continuous monitoring (the contrast between flour fragrance and the acidic odor). As measured by pH test paper, the flour with sodium selenite on the second day of fermentation was slightly alkaline with a pH of 7-8, while the flour without sodium selenite was acidified after fermentation with a pH of 4-5. […] Since tumor cells and anaerobia cells have the same steps and processes of chemical reactions in glycolysis, it is believed that tumor cells would either stop metabolism and die, or change the metabolic pattern and turn into normal cells.
# tumors = assay: administration of reducing agents in cycles to tumor patients; type: in vivo, human; settings: advanced lung cancer, 15-month course with bevacizumab, before reducing agents
# [7] = evening of same day, bare meat densely covered
# [8] = next morning, maggots appeared on untreated slice
# [9] = after 3 days, sodium formate 1 g 3 times per day, sodium oxalate 1 g per day
Molecule,fly maggot eggs on the meat slice (fly maggot eggs),fly maggot eggs on the meat slice (fly maggot eggs; [7]),maggots on the meat slice (fly maggot eggs; [8]),pH value of the gas in the beaker (wet pH paper) (glutamine metabolism),level of water absorbed on dry test paper [1],also measured
N[C@@H](CS)C(=O)O [L-cysteine],–,–,–,–,–,aqueous solution above the settled flour (anaerobia): clear and transparent
O=CO [formic acid],about 5,–,–,–,–,maggots on the meat slice (fly maggot eggs): no maggot was hatched
O=C(O)C(=O)O [oxalic acid],–,about 5,no maggot was hatched,about 7.5,about 9 mm,aqueous solution above the settled flour (anaerobia): clear and transparent
[Se] [selenium],–,–,–,–,–,safe dose ([2]; oral intake): no more than 400 mg per day
O=C[O-].[Na+] [sodium formate],–,about 5,no maggot was hatched,about 7.5,about 9 mm,"gastrointestinal discomfort [3]: alleviated gastrointestinal discomfort; colored spots in more than 10 people [4]: faded or disappeared colored spots; pain feeling of gout [5, 9]: alleviated and even disappeared; urine pH, hospital urine test ([5]; patient with a tumor, 1 g per day for two weeks): 8; pH of water in the glutinous rice [6]: slightly decreased from about 7; pH value of water in the glutinous rice [6]: about 6"
O=C([O-])C(=O)[O-].[Na+].[Na+] [sodium oxalate],about 5,–,–,about 7.5,about 9 mm,"maggots on the meat slice (fly maggot eggs): no maggot was hatched; pain feeling of gout [5, 9]: disappeared; morning urine pH by test paper ([5]; gout patients, after 3 days, sodium formate 1 g 3 times per day, sodium oxalate 1 g per day, 5.5 to 6 during onset): 7; pH of urine tested first in the morning ([5]; patients with frequent gout, 1 g per day): increased pH"
O=[Se](O)O [sodium selenite],5,–,–,about 7.5,9 mm,"diameter of brown rot spot on lettuce leaf (bacteria; fifth day, 180 μg selenium in 80 g tap water, 15 to 20 °C, without: about 6 mm): about 1 mm; diameter of spot on loofah juice (bacteria; fifth day, with sodium selenite): about 3 mm; day a spot first appeared on the surface of loofah juice (bacteria; loofah juice with sodium selenite, without: about 3 mm spot on second day): 3 days; pH of flour by pH test paper (fermenting microorganism): 7-8; pH value of the gas in the beaker (wet pH paper) ([1]; one hour, without sodium selenite 8): about 7.5; toxic dose ([2]; human, oral administration, publicly reported): 400 mg per day"
bevacizumab,–,–,–,–,–,CY211 index during course (tumors): up to 28
calcium formate,–,about 5,no maggot was hatched,about 7.5,about 9 mm,effect on pH of water in the glutinous rice [6]: same effect
selenium dioxide,–,about 5,no maggot was hatched,about 7.5,about 9 mm,–
sodium sulfide,about 5,–,–,–,–,maggots on the meat slice (fly maggot eggs): no maggot was hatched
